# In patent publication US10035800B2 (AbbVie Inc., priority 2013, dated 2018):
# Legend:
# [1] = test system: IL-6 (Interleukin-6) production; test: LPS (lipopolysaccharide) induced IL-6 production mouse assay; format: in vivo, mice; settings: mouse strain SCID; oral administration 1 h before LPS 2.5 mg/kg ip; serum 2 h after LPS; p < 0.05 vs vehicle
# Description: LPS (Lipopolysaccharide) Induced IL-6 Production Mouse Assay
# Compounds of the Examples listed in Table 2 were assayed for their ability to inhibit LPS (lipopolysaccharide) induced IL-6 (Interleukin-6) production in mice. Fox Chase SCID® female mice (Charles Rivers Labs, 5 per group) or CD1 female mice (5 per group) received an intraperitoneal challenge of lipopolysaccharide (2.5 mg/kg, L2630 E. coli 0111:B4) one hour after oral administration of compounds. Mice were euthanized 2 hours after lipopolysaccharide injection, blood was removed by cardiac puncture, and then the serum harvested from the blood samples was frozen at −80° C. On the day of the assay the serum samples were brought to room temperature and then diluted 1:20 in phosphate-buffered saline containing 2% bovine serum albumin. Interleukin-6 measurements were performed using a cytokine assay from Meso Scale Discovery (Gaithersburg, Md.) for mouse serum analysis according to the manufacturer's protocol and read on a SECTOR Imager 6000 (Meso Scale Discovery, Gaithersburg, Md.) instrument. Statistical analysis was performed using Prism software (version 5.0) incorporating Dunnett's one way ANOVA. The IL-6 mean and standard deviation of the group of vehicle treated animals were compared with the IL-6 mean and standard deviation of the group treated with drug. A p value <0.05 means that there is less than a 5% probability that the mean values in the two groups are equal.
# BRD4 (BDI_K57-E168) = biological target: T1, BRD4 (BDI_K57-E168) (Homo sapiens, UniProt O60885); test: TR-FRET bromodomain binding assay, first bromodomain of BRD4; settings: 100 nM probe
# T1 construct: BD1: amino acids K57-E168; made in house
# Procedure, shortened: (§1)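 Compound dilutions are mixed with His-tagged BRD4 bromodomain (8 nM), europium anti-His antibody (1 nM) and Alexa647 probe (BDI 100 nM; BDII 30 nM) in pH 6.0 buffer containing 2% DMSO. After equilibrating one hour at room temperature, TR-FRET is measured; percent inhibition is fitted to obtain IC50, from which Ki is calculated.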
# [2] = test system: breast cancer cell line MX-1; test: MX-1 cell line proliferation assay; format: cell-based; settings: MX-1 cells, 3-day proliferation assay, Cell Titer Glo; read-out: Cellular proliferation: EC50
# Procedure, shortened: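 MX-1 cells at 5000/well, in RPMI 1640 with 10% FBS, were exposed to compounds for 3 days. Final concentrations ranged 3 μM–0.1 nM or 1 μM–0.03 nM, in 3-fold steps. Cell Titer Glo luminescence was normalized to DMSO and fitted sigmoidally for EC50; overall MSR 2.1.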
# BRD4 (BDII_E352-M457) = biological target: T2, BRD4 (BDII_E352-M457) (Homo sapiens, UniProt O60885); test: TR-FRET bromodomain binding assay, second bromodomain of BRD4; settings: 30 nM probe
# T2 construct: protocol; made in house
# Procedure, shortened: as §1
# [3] = TR-FRET assay protocol E (compound 9.19 μM-150 pM)
# [4] = TR-FRET assay protocol G (compound 0.92 μM-15 pM)
Compound,EC50 [2] [nM],Ki (BRD4 (BDI_K57-E168); [4]) [nM],Ki (BRD4 (BDII_E352-M457); [4]) [nM],% inhibition of LPS induced IL-6 production [1] [%],Ki (BRD4 (BDI_K57-E168); [3]) [nM],Ki (BRD4 (BDII_E352-M457); [3]) [nM]
"4-(cyclopropylmethyl)-10-methyl-7-((methylsulfonyl)methyl)-3,4-dihydro-1H-1,4,10-triazadibenzo[cd,f]azulen-11(10H)-one [Example 6]",2.01,–,–,64,1.08,1.71
"CN(NC(=O)CCC1c2c[nH]c3c(=O)n(C)cc(c23)-c2cc(CS(C)(=O)=O)ccc2N1c1ccc(F)cc1F)c1ccccc1 (stereo not shown) [Example 122, 3-(4-(2,4-difluorophenyl)-10-methyl-7-((methylsulfonyl)methyl)-11-oxo-3,4,10,11-tetrahydro-1H-1,4,10-triazadibenzo[cd,f]azulen-3-yl)-N′-methyl-N′-phenylpropanehydrazide]",> 1000,10.8,0.922,–,–,–
"Cn1cc2c3c(c[nH]c3c1=O)CN(c1ccc(F)cc1)c1ncc(N)cc1-2 [Example 21, 7-amino-4-(4-fluorophenyl)-10-methyl-3,4-dihydro-1H-1,4,5,10-tetraazadibenzo[cd,f]azulen-11(10H)-one]",1.05,4.43,3,–,–,–
"Cn1cc2c3c(c[nH]c3c1=O)CN(CC1CC1)c1ncc(S(N)(=O)=O)cc1-2 [Example 10, 4-(cyclopropylmethyl)-10-methyl-11-oxo-3,4,10,11-tetrahydro-1H-1,4,5,10-tetraazadibenzo[cd,f]azulene-7-sulfonamide]",60.8,–,–,–,6.94,5.99
"4-(1H-indazol-5-yl)-10-methyl-7-((methylsulfonyl)methyl)-3,4-dihydro-1H-1,4,10-triazadibenzo[cd,f]azulen-11(10H)-one [Example 246]",11.7,4.32,3.6,–,–,–
"Cn1cc2c3c(c[nH]c3c1=O)CN(CCCc1ccccc1)c1c(F)cc(F)cc1-2 [Example 51, 5,7-difluoro-10-methyl-4-(3-phenylpropyl)-3,4-dihydro-1H-1,4,10-triazadibenzo[cd,f]azulen-11(10H)-one]",174,4.43,13.2,–,–,–
"Cc1cccc(C)c1NC(=O)N1Cc2c[nH]c3c(=O)n(C)cc(c23)-c2cc(CS(C)(=O)=O)ccc21 [Example 61, N-(2,6-dimethylphenyl)-10-methyl-7-((methylsulfonyl)methyl)-11-oxo-10,11-dihydro-1H-1,4,10-triazadibenzo[cd,f]azulene-4(3H)-carboxamide]",> 1000,21.1,3.74,–,–,–
"COC(=O)CCCN1Cc2c[nH]c3c(=O)n(C)cc(c23)-c2cc(F)cc(F)c21 [Example 50, methyl 4-(5,7-difluoro-10-methyl-11-oxo-10,11-dihydro-1H-1,4,10-triazadibenzo[cd,f]azulen-4(3H)-yl)butanoate]",42.2,3.44,5.51,–,–,–
"4-(cyclopropylmethyl)-7-(isopropylsulfonyl)-10-methyl-3,4-dihydro-1H-1,4,10-triazadibenzo[cd,f]azulen-11(10H)-one [Example 1]",27.2,–,–,–,32.7,10.5

# Second part, led by results:
EC50 [2] [nM],Ki (BRD4 (BDI_K57-E168); [4]) [nM],Ki (BRD4 (BDII_E352-M457); [4]) [nM],Compound,% inhibition of LPS induced IL-6 production [1] [%],Ki (BRD4 (BDI_K57-E168); [3]) [nM],Ki (BRD4 (BDII_E352-M457); [3]) [nM]
510,11.4,2.14,"Cn1cc2c3c(c[nH]c3c1=O)C(CNC(=O)CNC(=O)OC(C)(C)C)N(c1ccc(F)cc1F)c1ccc(CS(C)(=O)=O)cc1-2 (stereo not shown) [Example 135, tert-butyl (2-(((4-(2,4-difluorophenyl)-10-methyl-7-((methylsulfonyl)methyl)-11-oxo-3,4,10,11-tetrahydro-1H-1,4,10-triazadibenzo[cd,f]azulen-3-yl)methyl)amino)-2-oxoethyl)carbamate]",–,–,–
> 1000,200,29.1,"Cn1cc2c3c(c[nH]c3c1=O)C(CN1C(=O)c3ccccc3C1=O)N(c1ccc(F)cc1F)c1ccc(CS(C)(=O)=O)cc1-2 [Example 205, (R)-2-((4-(2,4-difluorophenyl)-10-methyl-7-((methylsulfonyl)methyl)-11-oxo-3,4,10,11-tetrahydro-1H-1,4,10-triazadibenzo[cd,f]azulen-3-yl)methyl)isoindoline-1,3-dione]",–,–,–
294,31.9,2.12,"CCNC(=O)c1[nH]c2c(=O)n(C)cc3c2c1C(C(=O)OCC)N(c1ccc(F)cc1F)c1ccc(CS(C)(=O)=O)cc1-3 (stereo not shown) [Example 239, ethyl 4-(2,4-difluorophenyl)-2-(ethylcarbamoyl)-10-methyl-7-((methylsulfonyl)methyl)-11-oxo-3,4,10,11-tetrahydro-1H-1,4,10-triazadibenzo[cd,f]azulene-3-carboxylate]",–,–,–
5.84,1.64,1.4,"COC(=O)NC1CCC(N2Cc3c[nH]c4c(=O)n(C)cc(c34)-c3cc(CS(C)(=O)=O)ccc32)CC1 (stereo not shown) [Example 224, methyl (4-(10-methyl-7-((methylsulfonyl)methyl)-11-oxo-10,11-dihydro-1H-1,4,10-triazadibenzo[cd,f]azulen-4(3H)-yl)cyclohexyl)carbamate]",–,–,–
134,7.94,1.18,"Cn1cc2c3c(c[nH]c3c1=O)C(CCN1C(=O)c3ccccc3C1=O)N(c1ccc(F)cc1F)c1ccc(CS(C)(=O)=O)cc1-2 (racemic) [Example 227, 2-(2-(4-(2,4-difluorophenyl)-10-methyl-7-((methylsulfonyl)methyl)-11-oxo-3,4,10,11-tetrahydro-1H-1,4,10-triazadibenzo[cd,f]azulen-3-yl)ethyl)isoindoline-1,3-dione]",–,–,–
319,20.8,10.9,"4-(2,4-difluorophenyl)-10-methyl-7-((methylsulfonyl)methyl)-11-oxo-3,4,10,11-tetrahydro-1H-1,4,10-triazadibenzo[cd,f]azulene-3-carboxamide [Example 141]",–,–,–
> 1000,193,42.6,"Cn1cc2c3c(c[nH]c3c1=O)C(c1cccc3ccccc13)N(c1ccc(F)cc1F)c1ccc(CS(C)(=O)=O)cc1-2 (stereo not shown) [Example 217, 4-(2,4-difluorophenyl)-10-methyl-7-((methylsulfonyl)methyl)-3-(naphthalen-1-yl)-3,4-dihydro-1H-1,4,10-triazadibenzo[cd,f]azulen-11(10H)-one]",–,–,–
49.2,13.2,1.33,"Cn1cc2c3c(c[nH]c3c1=O)C(CCCCCCO)N(c1ccc(F)cc1F)c1ccc(CS(C)(=O)=O)cc1-2 (stereo not shown) [Example 136, 4-(2,4-difluorophenyl)-3-(6-hydroxyhexyl)-10-methyl-7-((methylsulfonyl)methyl)-3,4-dihydro-1H-1,4,10-triazadibenzo[cd,f]azulen-11(10H)-one]",–,–,–
57.8,38.6,19.8,"Cn1cc2c3c(c[nH]c3c1=O)C(C(=O)NCc1ccccc1)N(c1ccc(F)cc1F)c1ccc(CS(C)(=O)=O)cc1-2 (racemic) [Example 159, N-benzyl-4-(2,4-difluorophenyl)-10-methyl-7-((methylsulfonyl)methyl)-11-oxo-3,4,10,11-tetrahydro-1H-1,4,10-triazadibenzo[cd,f]azulene-3-carboxamide]",–,–,–
240,51.7,3.87,"Cn1cc2c3c(c[nH]c3c1=O)C(CNC(=O)c1ccccc1)N(c1ccc(F)cc1F)c1ccc(CS(C)(=O)=O)cc1-2 (stereo not shown) [Example 137, N-((4-(2,4-difluorophenyl)-10-methyl-7-((methylsulfonyl)methyl)-11-oxo-3,4,10,11-tetrahydro-1H-1,4,10-triazadibenzo[cd,f]azulen-3-yl)methyl)benzamide]",–,–,–
2.13,0.43,1.02,"Cn1cc2c3c(c[nH]c3c1=O)CN(c1cccnc1)c1ccc(CS(C)(=O)=O)cc1-2 [Example 244, 10-methyl-7-((methylsulfonyl)methyl)-4-(pyridin-3-yl)-3,4-dihydro-1H-1,4,10-triazadibenzo[cd,f]azulen-11(10H)-one]",–,–,–
